From ChEMBL document CHEMBL4229519, “Design, synthesis, and activity evaluation of novel erythropoietin mimetic peptides” (Bioorg Med Chem Lett, 2018)
Bridge positions count the residues as written; N and C are the ends. Square brackets hold non-standard residues; d marks the D form. Peptide text beside a SMILES is read from it. 1Nal = N[C@@H](Cc1cccc2ccccc12)C(=O)O; Cit = NC(=O)NCCC[C@H](N)C(=O)O; NMeA = CN[C@@H](C)C(=O)O; Sar = CNCC(=O)O

Tests used:
Erythropoietin receptor = target: T1, Erythropoietin receptor (Homo sapiens, UniProt P19235); test: Agonist activity at EPO receptor in human TF1 cells assessed as induction of cell proliferation after 48 hrs by MTT assay; type: cell-based
T1 sequence (P19235 whole entry): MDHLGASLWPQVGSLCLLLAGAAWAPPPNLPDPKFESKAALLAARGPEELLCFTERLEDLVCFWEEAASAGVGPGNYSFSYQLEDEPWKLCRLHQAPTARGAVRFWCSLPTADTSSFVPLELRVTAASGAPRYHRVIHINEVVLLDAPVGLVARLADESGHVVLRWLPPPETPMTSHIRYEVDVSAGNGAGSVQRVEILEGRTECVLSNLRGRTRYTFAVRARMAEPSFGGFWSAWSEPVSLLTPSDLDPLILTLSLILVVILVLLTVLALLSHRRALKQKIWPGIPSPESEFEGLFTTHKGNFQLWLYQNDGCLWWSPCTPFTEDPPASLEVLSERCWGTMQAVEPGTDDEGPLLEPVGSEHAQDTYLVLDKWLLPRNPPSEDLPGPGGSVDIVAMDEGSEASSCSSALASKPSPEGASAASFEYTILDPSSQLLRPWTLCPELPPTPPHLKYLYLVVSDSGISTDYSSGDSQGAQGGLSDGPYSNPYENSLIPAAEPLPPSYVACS

Mus musculus [1] = test: Toxicity in mouse assessed as increase in body weight at 2.1 umol/kg, sc administered once daily for 7 consecutive days measured on day 3 during compound dosing relative to control; type: organism-based; settings: in vivo
Mus musculus [2] = test: Toxicity in mouse assessed as increase in body weight at 2.1 umol/kg, sc administered once daily for 7 consecutive days measured on day 5 during compound dosing relative to control; type: organism-based; settings: in vivo
Mus musculus [3] = test: Toxicity in mouse assessed as increase in body weight at 2.1 umol/kg, sc administered once daily for 7 consecutive days measured on day 7 during compound dosing relative to control; type: organism-based; settings: in vivo
Mus musculus [4] = test: Toxicity in mouse assessed as body weight at 2.1 umol/kg, sc administered once daily for 7 consecutive days measured on day 1 during compound dosing (reference value: 24.5 +/- 1.1 g); type: organism-based; settings: in vivo
Mus musculus [5] = test: Antianemic activity in mouse assessed as RBC level at 2.1 umol/kg, sc administered once daily for 7 consecutive days (reference value: 8.74 +/- 0.58 10^12/L); type: functional
Mus musculus [6] = test: Antianemic activity in mouse assessed as hematocrit by measuring ratio of RBC volume to total blood volume at 2.1 umol/kg, sc administered once daily for 7 consecutive days (reference value: 0.476 +/- 0.024); type: functional
Mus musculus [7] = test: Antianemic activity in mouse assessed as hemoglobin level at 2.1 umol/kg, sc administered once daily for 7 consecutive days (reference value: 135.1 +/- 9.5 g/L); type: functional
Mus musculus [8] = test: Antianemic activity in mouse assessed as reticulocyte level at 2.1 umol/kg, sc administered once daily for 7 consecutive days (reference value: 0.46 +/- 0.11 10^12/L); type: functional
Mus musculus [9] = test: Effect on WBC level in mouse at 2.1 umol/kg, sc administered once daily for 7 consecutive days (reference value: 5.84 +/- 1.43 10^9/L); type: ADME, organism-based; settings: in vivo

| EC50 (Erythropoietin receptor) | Activity (Mus musculus [9]) [×10⁹ /L] | Structure (SMILES) | Activity (Mus musculus [1]) [%] | Activity (Mus musculus [2]) [%] | Activity (Mus musculus [3]) [%] | Activity (Mus musculus [4]) [g] | Activity (Mus musculus [5]) [×10¹² /L] | Ratio (Mus musculus [6]) | Activity (Mus musculus [7]) [g/L] | Activity (Mus musculus [8]) [×10¹² /L] |
| --- | --- | --- | --- | --- | --- | --- | --- | --- | --- | --- |
| Not Active | – | CC[C@H](C)[C@@H]1NC(=O)[C@@H]2CCCN2C(=O)CNC(=O)[C@H](CCSC)NC(=O)[C@H](Cc2cnc[nH]2)NC(=O)[C@@H](NC(=O)[C@H](C)NC(=O)[C@@H](Cc2ccc(O)cc2)NC(=O)[C@H](CC(C)C)NC(=O)CNC(=O)CNC(C)=O)CSSC[C@@H](C(=O)N[C@@H](CCC(N)=O)C(=O)N2CCC[C@H]2C(=O)N[C@@H](CC(C)C)C(=O)N[C@@H](CCCNC(=N)N)C(=O)N(C)CC(=O)N[C@@H](CCCCN)C(N)=O)NC(=O)[C@H](C(C)C)NC(=O)[C@H](Cc2cccc3ccccc23)NC(=O)[C@H]([C@@H](C)O)NC1=O | – | – | – | – | – | – | – | – |
| – | 5.11 | CC[C@H](C)[C@@H]1NC(=O)[C@@H]2CCCN2C(=O)CNC(=O)[C@H](CCSC)NC(=O)[C@H](Cc2cnc[nH]2)NC(=O)[C@@H](NC(=O)[C@H](C)NC(=O)[C@H](Cc2ccc(O)cc2)NC(=O)[C@H](CC(C)C)NC(=O)CNC(=O)CNC(C)=O)CSSC[C@@H](C(=O)N[C@@H](CCC(N)=O)C(=O)N2CCC[C@H]2C(=O)N[C@@H](CC(C)C)C(=O)N[C@@H](CCCNC(=N)N)C(=O)N(C)CC(=O)N[C@@H](CCCCN)C(N)=O)NC(=O)[C@H](C(C)C)NC(=O)[C@H](Cc2cccc3ccccc23)NC(=O)[C@H]([C@@H](C)O)NC1=O | 12.5 | 16.3 | 22.6 | 24.9 | 9.17 | 0.493 | 149.9 | 0.7 |
| Not Active | – | CC[C@H](C)[C@@H]1NC(=O)[C@@H]2CCCN2C(=O)CNC(=O)[C@@H](CCSC)NC(=O)[C@H](Cc2cnc[nH]2)NC(=O)[C@@H](NC(=O)[C@H](C)NC(=O)[C@H](Cc2ccc(O)cc2)NC(=O)[C@H](CC(C)C)NC(=O)CNC(=O)CNC(C)=O)CSSC[C@@H](C(=O)N[C@@H](CCC(N)=O)C(=O)N2CCC[C@H]2C(=O)N[C@@H](CC(C)C)C(=O)N[C@@H](CCCNC(=N)N)C(=O)N(C)CC(=O)N[C@@H](CCCCN)C(N)=O)NC(=O)[C@H](C(C)C)NC(=O)[C@H](Cc2cccc3ccccc23)NC(=O)[C@H]([C@@H](C)O)NC1=O | – | – | – | – | – | – | – | – |
| – | 5.45 | CC[C@H](C)[C@@H]1NC(=O)[C@@H]2CCCN2C(=O)CNC(=O)[C@H](CCSC)NC(=O)[C@H](Cc2cnc[nH]2)NC(=O)[C@@H](NC(=O)[C@H](C)NC(=O)[C@H](Cc2ccc(O)cc2)NC(=O)[C@H](CC(C)C)NC(=O)CNC(=O)CNC(C)=O)CSSC[C@@H](C(=O)N[C@@H](CCC(N)=O)C(=O)N(C)[C@@H](C)C(=O)N[C@@H](CC(C)C)C(=O)N[C@@H](CCCNC(=N)N)C(=O)N(C)CC(=O)N[C@@H](CCCCN)C(N)=O)NC(=O)[C@H](C(C)C)NC(=O)[C@H](Cc2cccc3ccccc23)NC(=O)[C@H]([C@@H](C)O)NC1=O (Ac-GGLYACHMGPIT[1Nal]VCQ[NMeA]LR[Sar]K-NH2; disulfide 6-15) | 11 | 15.3 | 19.1 | 24.7 | 9.14 | 0.493 | 146.4 | 0.65 |
| Not Active | – | CC[C@H](C)[C@@H]1NC(=O)[C@@H]2CCCN2C(=O)CNC(=O)[C@H](CCSC)NC(=O)[C@H](Cc2cnc[nH]2)NC(=O)[C@@H](NC(=O)[C@@H](C)NC(=O)[C@H](Cc2ccc(O)cc2)NC(=O)[C@H](CC(C)C)NC(=O)CNC(=O)CNC(C)=O)CSSC[C@@H](C(=O)N[C@@H](CCC(N)=O)C(=O)N2CCC[C@H]2C(=O)N[C@@H](CC(C)C)C(=O)N[C@@H](CCCNC(=N)N)C(=O)N(C)CC(=O)N[C@@H](CCCCN)C(N)=O)NC(=O)[C@H](C(C)C)NC(=O)[C@H](Cc2cccc3ccccc23)NC(=O)[C@H]([C@@H](C)O)NC1=O | – | – | – | – | – | – | – | – |
| – | 6.48 | CC[C@H](C)[C@@H]1NC(=O)[C@@H]2CCCN2C(=O)CNC(=O)[C@H](CCSC)NC(=O)[C@H](Cc2cnc[nH]2)NC(=O)[C@@H](NC(=O)[C@H](C)NC(=O)[C@H](Cc2ccc(O)cc2)NC(=O)[C@H](CC(C)C)NC(=O)CNC(=O)CNC(C)=O)CSSC[C@@H](C(=O)N[C@@H](CCC(N)=O)C(=O)N2CCC[C@H]2C(=O)N[C@@H](CC(C)C)C(=O)N[C@@H](CCCNC(N)=O)C(=O)N(C)CC(=O)N[C@@H](CCCCN)C(N)=O)NC(=O)[C@H](C(C)C)NC(=O)[C@H](Cc2cccc3ccccc23)NC(=O)[C@H]([C@@H](C)O)NC1=O (Ac-GGLYACHMGPIT[1Nal]VCQPL[Cit][Sar]K-NH2; disulfide 6-15) | 11.7 | 16.9 | 21.7 | 25.5 | 9.67 | 0.535 | 158.1 | 0.89 |
| – | 5.64 | CC[C@H](C)[C@@H]1NC(=O)[C@H](C)N(C)C(=O)CNC(=O)[C@H](CCSC)NC(=O)[C@H](Cc2cnc[nH]2)NC(=O)[C@@H](NC(=O)[C@H](C)NC(=O)[C@H](Cc2ccc(O)cc2)NC(=O)[C@H](CC(C)C)NC(=O)CNC(=O)CNC(C)=O)CSSC[C@@H](C(=O)N[C@@H](CCC(N)=O)C(=O)N2CCC[C@H]2C(=O)N[C@@H](CC(C)C)C(=O)N[C@@H](CCCNC(=N)N)C(=O)N(C)CC(=O)N[C@@H](CCCCN)C(N)=O)NC(=O)[C@H](C(C)C)NC(=O)[C@H](Cc2cccc3ccccc23)NC(=O)[C@H]([C@@H](C)O)NC1=O (Ac-GGLYACHMG[NMeA]IT[1Nal]VCQPLR[Sar]K-NH2; disulfide 6-15) | 12.7 | 19.5 | 27.2 | 24.7 | 9.15 | 0.498 | 144.4 | 0.66 |
